The target in this assay is T1, WIZ (Homo sapiens, UniProt O95785+Q96SW2).
T1 construct: expressed in transfected cells
Description: Quantification of WIZ protein levels in HiBit tag fusion protein assay (293T cells). Type of assay: cell-based. Also noted: Dmax: dose or concentration left out as unconfirmed. Particulars: for Dmax / remaining activity at 25 µM / Dmax at 25 µM: HEK-293T; for Dmax / Dmax at 25 µM: read-out: % degradation of WIZ (100 − Amax); for remaining activity at 25 µM: read-out: WIZ Amax; for DC50: WIZ HiBit assay in 293T cells, about 18 hours, 10-point 5-fold dilution, top 25 μM, read-out: WIZ AC50; for Dmax at 25 µM: 100 − Amax. In a few lines:
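293T cells stably carrying a single-copy HiBit-WIZ fusion were exposed to compounds for about 18 hours at 37° C., top concentration 25 μM, 10-point 5-fold series. Lysates were complemented with LgBit and luminescence was read. Amax is the DMSO-normalized, curve-fitted percentage of WIZ-HiBit remaining at 25 uM.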
On the technique in general: HiBiT is a short tag that completes a luciferase, so light tracks the accessible tagged protein.

Where [1] appears, read: DMSO-normalized, curve-fitted percentage of WIZ-HiBit remaining at 25 uM.

Read-outs that look alike come from different tables or passages of the source.

T1 sequence (O95785 whole entry): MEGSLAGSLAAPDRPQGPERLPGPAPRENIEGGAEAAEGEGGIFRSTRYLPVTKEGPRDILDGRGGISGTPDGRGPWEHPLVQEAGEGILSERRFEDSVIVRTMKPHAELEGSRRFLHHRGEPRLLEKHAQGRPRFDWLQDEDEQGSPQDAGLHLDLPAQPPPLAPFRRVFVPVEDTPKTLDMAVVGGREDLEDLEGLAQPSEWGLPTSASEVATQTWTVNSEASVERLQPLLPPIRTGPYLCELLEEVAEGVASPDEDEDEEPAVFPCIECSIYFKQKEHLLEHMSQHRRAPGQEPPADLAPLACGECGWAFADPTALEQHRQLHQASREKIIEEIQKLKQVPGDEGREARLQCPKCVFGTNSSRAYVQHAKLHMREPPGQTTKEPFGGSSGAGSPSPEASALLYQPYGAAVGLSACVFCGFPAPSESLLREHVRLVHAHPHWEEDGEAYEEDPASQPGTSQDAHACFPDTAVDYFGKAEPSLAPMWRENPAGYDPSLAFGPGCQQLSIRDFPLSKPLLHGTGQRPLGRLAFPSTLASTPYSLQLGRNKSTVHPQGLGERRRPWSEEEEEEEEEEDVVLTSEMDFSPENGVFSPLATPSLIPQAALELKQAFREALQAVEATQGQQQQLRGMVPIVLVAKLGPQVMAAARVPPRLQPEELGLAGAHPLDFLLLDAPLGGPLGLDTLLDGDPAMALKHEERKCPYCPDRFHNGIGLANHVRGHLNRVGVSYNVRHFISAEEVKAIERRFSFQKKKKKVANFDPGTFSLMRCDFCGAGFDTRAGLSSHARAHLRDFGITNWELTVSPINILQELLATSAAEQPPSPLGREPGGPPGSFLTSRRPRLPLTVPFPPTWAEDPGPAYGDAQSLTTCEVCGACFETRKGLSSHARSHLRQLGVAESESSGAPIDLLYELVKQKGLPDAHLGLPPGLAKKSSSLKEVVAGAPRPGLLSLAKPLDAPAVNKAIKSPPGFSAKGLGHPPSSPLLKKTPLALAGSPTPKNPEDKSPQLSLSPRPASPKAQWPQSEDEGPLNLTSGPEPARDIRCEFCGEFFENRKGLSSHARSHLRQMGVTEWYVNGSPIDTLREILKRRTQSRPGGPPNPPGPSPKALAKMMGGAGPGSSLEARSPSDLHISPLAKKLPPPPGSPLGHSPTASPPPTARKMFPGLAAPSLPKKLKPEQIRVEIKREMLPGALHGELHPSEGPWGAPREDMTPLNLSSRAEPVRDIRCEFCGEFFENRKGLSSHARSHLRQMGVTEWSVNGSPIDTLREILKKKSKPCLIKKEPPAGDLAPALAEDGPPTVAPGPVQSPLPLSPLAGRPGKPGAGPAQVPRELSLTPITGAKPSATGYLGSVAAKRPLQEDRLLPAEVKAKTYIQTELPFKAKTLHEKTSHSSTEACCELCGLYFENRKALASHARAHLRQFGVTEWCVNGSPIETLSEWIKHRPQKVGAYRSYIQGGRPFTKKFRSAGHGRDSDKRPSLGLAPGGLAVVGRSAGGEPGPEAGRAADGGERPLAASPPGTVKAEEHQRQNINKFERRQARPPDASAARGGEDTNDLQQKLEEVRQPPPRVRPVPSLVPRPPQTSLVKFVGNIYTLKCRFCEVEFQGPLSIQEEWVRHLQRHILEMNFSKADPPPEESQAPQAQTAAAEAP
T1 sequence (Q96SW2 whole entry): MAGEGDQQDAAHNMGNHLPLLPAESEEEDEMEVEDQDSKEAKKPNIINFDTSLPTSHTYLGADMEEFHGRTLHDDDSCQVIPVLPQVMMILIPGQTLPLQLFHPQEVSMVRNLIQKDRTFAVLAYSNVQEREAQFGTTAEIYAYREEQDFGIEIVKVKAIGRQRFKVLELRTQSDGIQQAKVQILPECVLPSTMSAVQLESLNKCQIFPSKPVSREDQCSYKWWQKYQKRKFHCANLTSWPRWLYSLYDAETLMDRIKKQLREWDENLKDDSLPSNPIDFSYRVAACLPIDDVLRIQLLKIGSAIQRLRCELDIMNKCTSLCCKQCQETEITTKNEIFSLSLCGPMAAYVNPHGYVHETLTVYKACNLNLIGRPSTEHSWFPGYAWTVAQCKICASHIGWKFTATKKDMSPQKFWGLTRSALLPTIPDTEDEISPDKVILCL
T1 sequence (Q16531 whole entry partner): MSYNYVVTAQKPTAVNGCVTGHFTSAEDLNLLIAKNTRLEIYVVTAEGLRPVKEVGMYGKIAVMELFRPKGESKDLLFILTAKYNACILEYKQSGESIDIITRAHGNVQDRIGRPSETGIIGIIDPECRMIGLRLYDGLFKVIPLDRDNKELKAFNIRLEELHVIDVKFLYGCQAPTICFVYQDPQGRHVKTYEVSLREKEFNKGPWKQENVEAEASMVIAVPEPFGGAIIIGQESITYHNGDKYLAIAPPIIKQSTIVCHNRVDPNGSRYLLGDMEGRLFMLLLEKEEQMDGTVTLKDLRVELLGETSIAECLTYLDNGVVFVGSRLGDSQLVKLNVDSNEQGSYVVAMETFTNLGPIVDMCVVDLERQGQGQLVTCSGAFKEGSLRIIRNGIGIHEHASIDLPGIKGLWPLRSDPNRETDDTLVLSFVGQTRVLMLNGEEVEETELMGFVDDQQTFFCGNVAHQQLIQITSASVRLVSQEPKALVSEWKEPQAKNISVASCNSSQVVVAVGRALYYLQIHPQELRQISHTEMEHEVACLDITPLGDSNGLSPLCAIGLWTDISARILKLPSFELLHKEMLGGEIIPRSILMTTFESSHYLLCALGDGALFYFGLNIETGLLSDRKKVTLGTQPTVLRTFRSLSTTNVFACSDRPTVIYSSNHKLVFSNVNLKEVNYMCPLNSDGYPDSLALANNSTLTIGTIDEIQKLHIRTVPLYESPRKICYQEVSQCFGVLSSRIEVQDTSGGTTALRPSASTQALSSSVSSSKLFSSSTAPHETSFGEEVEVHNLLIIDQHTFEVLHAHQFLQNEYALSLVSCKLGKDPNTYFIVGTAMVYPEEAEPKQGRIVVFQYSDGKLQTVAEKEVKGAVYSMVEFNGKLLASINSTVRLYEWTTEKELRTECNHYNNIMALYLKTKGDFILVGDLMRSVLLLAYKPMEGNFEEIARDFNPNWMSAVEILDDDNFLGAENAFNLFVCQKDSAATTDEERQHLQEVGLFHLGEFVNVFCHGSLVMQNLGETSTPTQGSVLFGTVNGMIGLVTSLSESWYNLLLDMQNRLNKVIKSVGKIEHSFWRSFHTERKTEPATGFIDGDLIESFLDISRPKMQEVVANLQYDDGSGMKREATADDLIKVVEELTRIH

Take `CCN1C[C@H](F)C[C@@H](Oc2ccc3c(c2)CN(C2CCC(=O)NC2=O)C3=O)C1` (stereo partly drawn) [Example 60, 3-(5-(((3R,5R)-1-ethyl-5-fluoropiperidin-3-yl)oxy)-1-oxoisoindolin-2-yl)piperidine-2,6-dione]: the Dmax turned out to be 37%, the remaining activity at 25 µM amounted to 63% and the DC50 is 78 nM.

In the case of `CCO[C@@H]1C[C@@H](Oc2ccc3c(c2)CN(C2CCC(=O)NC2=O)C3=O)CN(CC)C1` (stereo partly drawn) [Example 63, 3-(5-(((3R,5R)-5-ethoxy-1-ethylpiperidin-3-yl)oxy)-1-oxoisoindolin-2-yl)piperidine-2,6-dione], the Dmax was 79.5%, the remaining activity at 25 µM came to 20.5% and the DC50 came out at 0.12 nM.

`CCN1C[C@H](OC)C[C@@H](Oc2ccc3c(c2)CN(C2CCC(=O)NC2=O)C3=O)C1` (stereo partly drawn) [Example 64, 3-(5-(((3R,5R)-1-ethyl-5-methoxypiperidin-3-yl)oxy)-1-oxoisoindolin-2-yl)piperidine-2,6-dione]: the Dmax is 79.5%, the remaining activity at 25 µM was determined as 20.6% and the DC50 came to 6.3 nM.

`CCN1C[C@H](O)C[C@@H](Oc2ccc3c(c2)CN(C2CCC(=O)NC2=O)C3=O)C1` (stereo partly drawn) [Example 66, 3-(5-(((3R,5R)-1-ethyl-5-hydroxypiperidin-3-yl)oxy)-1-oxoisoindolin-2-yl)piperidine-2,6-dione]: the Dmax at 25 µM turned out to be 80.1% and the DC50 worked out at 33.3 nM. The remaining activity at 25 µM under setting [1] is 19.9%.

As for `CC(C)N1C[C@H](O)C[C@@H](Oc2ccc3c(c2)CN(C2CCC(=O)NC2=O)C3=O)C1` (stereo partly drawn) [Example 67, 3-(5-(((3R,5R)-5-hydroxy-1-isopropylpiperidin-3-yl)oxy)-1-oxoisoindolin-2-yl)piperidine-2,6-dione], the Dmax at 25 µM turned out to be 83.1% and the DC50 was 11.2 nM. Under setting [1], the remaining activity at 25 µM was determined as 16.9%.

Consider `CCO[C@@H]1C[C@@H](Oc2ccc3c(c2)CN(C2CCC(=O)NC2=O)C3=O)CN(C(=O)NC)C1` (stereo partly drawn) [Example 68, (3R,5R)-3-((2-(2,6-dioxopiperidin-3-yl)-1-oxoisoindolin-5-yl)oxy)-5-ethoxy-N-methylpiperidine-1-carboxamide], for which the DC50 was more than 25000 nM. Moreover, the remaining activity at 25 µM under setting [1] is 105%.

As for `CCOC(=O)N1C[C@H](OCC)C[C@@H](Oc2ccc3c(c2)CN(C2CCC(=O)NC2=O)C3=O)C1` (stereo partly drawn) [Example 69, ethyl (3R,5R)-3-((2-(2,6-dioxopiperidin-3-yl)-1-oxoisoindolin-5-yl)oxy)-5-ethoxypiperidine-1-carboxylate], the DC50 is more than 25000 nM. In addition, the remaining activity at 25 µM under setting [1] amounted to 106%.

`CCO[C@@H]1C[C@@H](Oc2ccc3c(c2)CN(C2CCC(=O)NC2=O)C3=O)CN(C(C)=O)C1` (stereo partly drawn) [Example 70, 3-(5-(((3R,5R)-1-acetyl-5-ethoxypiperidin-3-yl)oxy)-1-oxoisoindolin-2-yl)piperidine-2,6-dione]: the DC50 was more than 25000 nM. Moreover, the remaining activity at 25 µM under setting [1] amounted to 107%.

In the case of `CCO[C@@H]1C[C@@H](Oc2ccc3c(c2)CN(C2CCC(=O)NC2=O)C3=O)CN(S(C)(=O)=O)C1` (stereo partly drawn) [Example 71, 3-(5-(((3R,5R)-5-ethoxy-1-(methylsulfonyl)piperidin-3-yl)oxy)-1-oxoisoindolin-2-yl)piperidine-2,6-dione], the Dmax at 25 µM was determined as 61% and the DC50 is 45.3 nM. In addition, the remaining activity at 25 µM under setting [1] is 39%.

In the case of `CCO[C@@H]1C[C@@H](Oc2ccc3c(c2)CN(C2CCC(=O)NC2=O)C3=O)CN(CC(C)C)C1` (stereo partly drawn) [Example 72, 3-(5-(((3R,5R)-5-ethoxy-1-isobutylpiperidin-3-yl)oxy)-1-oxoisoindolin-2-yl)piperidine-2,6-dione], the Dmax at 25 µM is 59.9% and the DC50 is 41.5 nM. Further, under setting [1], the remaining activity at 25 µM amounted to 40.1%.

As for `CCO[C@@H]1C[C@@H](Oc2ccc3c(c2)CN(C2CCC(=O)NC2=O)C3=O)CN(C2CCC2)C1` (stereo partly drawn) [Example 73, 3-(5-(((3R,5R)-1-cyclobutyl-5-ethoxypiperidin-3-yl)oxy)-1-oxoisoindolin-2-yl)piperidine-2,6-dione], the Dmax was 62.8%, the remaining activity at 25 µM was found to be 37.2% and the DC50 came out at 23.8 nM.

As for `CCO[C@@H]1C[C@@H](Oc2ccc3c(c2)CN(C2CCC(=O)NC2=O)C3=O)CN(C(C)C)C1` (stereo partly drawn) [Example 74, 3-(5-(((3R,5R)-5-ethoxy-1-isopropylpiperidin-3-yl)oxy)-1-oxoisoindolin-2-yl)piperidine-2,6-dione], the Dmax at 25 µM amounted to 78.1% and the DC50 worked out at 8.9 nM. In addition, the remaining activity at 25 µM under setting [1] worked out at 21.9%.

Take `C[C@@H]1C[C@@H](Oc2ccc3c(c2)CN(C2CCC(=O)NC2=O)C3=O)CN(C)C1` (stereo partly drawn) [Example 75-2, 3-(5-(((3R,5R)-1,5-dimethylpiperidin-3-yl)oxy)-1-oxoisoindolin-2-yl)piperidine-2,6-dione]: the Dmax is 83.5%, the remaining activity at 25 µM stood at 16.5% and the DC50 worked out at 4 nM.

Consider `CC(C)N1C[C@H](C)C[C@@H](Oc2ccc3c(c2)CN(C2CCC(=O)NC2=O)C3=O)C1` (stereo partly drawn) [Example 77, 3-(5-(((3R,5R)-1-isopropyl-5-methylpiperidin-3-yl)oxy)-1-oxoisoindolin-2-yl)piperidine-2,6-dione], for which the Dmax at 25 µM is 86.5% and the DC50 was determined as 1.1 nM. For the same compound, under setting [1], the remaining activity at 25 µM worked out at 13.6%.

Turning to `C[C@@H]1C[C@@H](Oc2ccc3c(c2)CN(C2CCC(=O)NC2=O)C3=O)CN(C2CCC2)C1` (stereo partly drawn) [Example 78, 3-(5-(((3R,5R)-1-cyclobutyl-5-methylpiperidin-3-yl)oxy)-1-oxoisoindolin-2-yl)piperidine-2,6-dione], the Dmax came to 85.7%, the remaining activity at 25 µM was determined as 14.3% and the DC50 is 0.5 nM.

For the compound `CC(C)CN1C[C@H](C)C[C@@H](Oc2ccc3c(c2)CN(C2CCC(=O)NC2=O)C3=O)C1` (stereo partly drawn) [Example 79, 3-(5-(((3R,5R)-1-isobutyl-5-methylpiperidin-3-yl)oxy)-1-oxoisoindolin-2-yl)piperidine-2,6-dione], the Dmax at 25 µM was found to be 82.7% and the DC50 stood at 1.7 nM. The remaining activity at 25 µM under setting [1] is 17.3%.

`C[C@@H]1C[C@@H](Oc2ccc3c(c2)CN(C2CCC(=O)NC2=O)C3=O)CN(S(C)(=O)=O)C1` (stereo partly drawn) [Example 80, 3-(5-(((3R,5R)-5-methyl-1-(methylsulfonyl)piperidin-3-yl)oxy)-1-oxoisoindolin-2-yl)piperidine-2,6-dione]: the Dmax at 25 µM came out at 71.4% and the DC50 is 23.4 nM. Further, under setting [1], the remaining activity at 25 µM came out at 28.6%.

Consider `CC(C)N1C[C@H](Oc2ccc3c(c2)CN(C2CCC(=O)NC2=O)C3=O)CC[C@@H]1C` (stereo partly drawn) [Example 81, 3-(5-(((3R,6S)-1-isopropyl-6-methylpiperidin-3-yl)oxy)-1-oxoisoindolin-2-yl)piperidine-2,6-dione], for which the Dmax at 25 µM amounted to 89.3% and the DC50 worked out at 2 nM. The remaining activity at 25 µM under setting [1] turned out to be 10.7%.

Turning to `C[C@H]1CC[C@@H](Oc2ccc3c(c2)CN(C2CCC(=O)NC2=O)C3=O)CN1C1CCC1` (stereo partly drawn) [Example 82, 3-(5-(((3R,6S)-1-cyclobutyl-6-methylpiperidin-3-yl)oxy)-1-oxoisoindolin-2-yl)piperidine-2,6-dione], the Dmax came to 85%, the remaining activity at 25 µM was 15% and the DC50 was 0.5 nM.

Consider `CCOC(=O)N1C[C@H](Oc2ccc3c(c2)CN(C2CCC(=O)NC2=O)C3=O)CC[C@@H]1C` (stereo partly drawn) [Example 83, ethyl (2S,5R)-5-((2-(2,6-dioxopiperidin-3-yl)-1-oxoisoindolin-5-yl)oxy)-2-methylpiperidine-1-carboxylate], for which the Dmax at 25 µM came to 3.24% and the DC50 was more than 25000 nM. Besides, the remaining activity at 25 µM under setting [1] was found to be 96.8%.

Consider `CNC(=O)N1C[C@H](Oc2ccc3c(c2)CN(C2CCC(=O)NC2=O)C3=O)CC[C@@H]1C` (stereo partly drawn) [Example 84, (2S,5R)-5-((2-(2,6-dioxopiperidin-3-yl)-1-oxoisoindolin-5-yl)oxy)-N,2-dimethylpiperidine-1-carboxamide], for which the Dmax at 25 µM stood at 18.3% and the DC50 came out at 1170 nM. Further, the remaining activity at 25 µM under setting [1] amounted to 81.7%.

`C[C@H]1CC[C@@H](Oc2ccc3c(c2)CN(C2CCC(=O)NC2=O)C3=O)CN1S(C)(=O)=O` (stereo partly drawn) [Example 85, 3-(5-(((3R,6S)-6-methyl-1-(methylsulfonyl)piperidin-3-yl)oxy)-1-oxoisoindolin-2-yl)piperidine-2,6-dione]: the Dmax at 25 µM came to 34.3% and the DC50 is 67.2 nM. Further, the remaining activity at 25 µM under setting [1] is 65.7%.

Regarding `CC(=O)N1C[C@H](Oc2ccc3c(c2)CN(C2CCC(=O)NC2=O)C3=O)CC[C@@H]1C` (stereo partly drawn) [Example 86, 3-(5-(((3R,6S)-1-acetyl-6-methylpiperidin-3-yl)oxy)-1-oxoisoindolin-2-yl)piperidine-2,6-dione], the Dmax at 25 µM came to 24% and the DC50 was more than 25000 nM. In addition, the remaining activity at 25 µM under setting [1] came to 76%.

`CCC[C@H]1CC[C@@H](Oc2ccc3c(c2)CN(C2CCC(=O)NC2=O)C3=O)CN1` (stereo partly drawn) [Example 87-1, 3-(1-oxo-5-(((3R,6S)-6-propylpiperidin-3-yl)oxy)isoindolin-2-yl)piperidine-2,6-dione]: the Dmax was 71.4%, the remaining activity at 25 µM was determined as 28.6% and the DC50 came to 35.9 nM.

`CCC[C@H]1CC[C@@H](Oc2ccc3c(c2)CN(C2CCC(=O)NC2=O)C3=O)CN1CC` (stereo partly drawn) [Example 87-2, 3-(5-(((3R,6S)-1-ethyl-6-propylpiperidin-3-yl)oxy)-1-oxoisoindolin-2-yl)piperidine-2,6-dione]: the Dmax was 89.7%, the remaining activity at 25 µM was 10.3% and the DC50 was 0.6 nM.

The values above are taken from patent US12103919B2, “3-(5-oxy)-1-oxoisoindolin-2-yl)piperidine-2,6-dione derivatives and uses thereof” (NOVARTIS AG, priority 2021, dated 2024).
